Source: patent US3975366A, “Process for the production of new pepstatins having anti-pepsin activity” (Zaidan Hojin Biseibutsu Kagaku Kenkyu Kai, priority 1971, dated 1976)
≈ marks a conversion by molar mass, not a printed value. Where “and” joins values, the source holds several entries; their conditions need not be identical. Equal values may be shown once. Where a name gives a salt, the structure may show the parent alone.

Experiments:
pepsin = pepsin (Sus scrofa, UniProt P00791); test: anti-pepsin activity (50% inhibition of pepsin, ID50); format: biochemical; set-up: ID50 (50% inhibition against pepsin): unit not given beside the values; conditions: for ID50 (50% inhibition against pepsin): amount giving 50% inhibition of pepsin
physchem = conditions: methanol, organic solvent or mixture

Chain of pepsin (P00791 60-385): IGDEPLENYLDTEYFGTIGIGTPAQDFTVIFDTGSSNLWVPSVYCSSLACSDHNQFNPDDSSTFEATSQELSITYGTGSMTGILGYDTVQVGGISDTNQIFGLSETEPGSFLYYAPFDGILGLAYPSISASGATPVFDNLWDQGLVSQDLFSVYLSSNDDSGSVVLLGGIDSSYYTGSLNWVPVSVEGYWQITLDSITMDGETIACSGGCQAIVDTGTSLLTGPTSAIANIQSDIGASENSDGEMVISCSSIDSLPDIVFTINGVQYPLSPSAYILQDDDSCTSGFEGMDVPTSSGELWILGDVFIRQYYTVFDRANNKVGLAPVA

SMILES: CC(=NNc1ccc([N+](=O)[O-])cc1[N+](=O)[O-])C(CC(C)C)NC(=O)C(C)NC(=O)CC(O)C(CC(C)C)NC(=O)C(NC(=O)C(NC(=O)CC(C)C)C(C)C)C(C)C (stereo not drawn)
- pepsin-inhibitory activity as % of the activity of pepstatin (pepstatin A) (pepsin; relative to pepstatin A): 37%

SMILES: CCCCCC(=O)N[C@H](C(=O)N[C@H](C(=O)NC(CC(C)C)C(O)CC(=O)N[C@@H](C)C(=O)NC(CC(C)C)C(O)CC(=O)OC)C(C)C)C(C)C (stereo partly drawn) [methyl ester of pepstatin B]
- anti-pepsin activity compared with pepstatin methyl ester (pepsin; comparison in words): the same as that of pepstatin methyl ester
- Id50 (pepsin; unit not given, third crystals of Example 3): 0.05
- solubility (physchem): 5 to 10 mg/mL (≈ 7 to 14 mM)

SMILES: CCCCCC(=O)N[C@H](C(=O)N[C@H](C(=O)NC(CC(C)C)C(O)CC(=O)N[C@@H](C)C(=O)NC(CC(C)C)C(O)CC(=O)OCCCC)C(C)C)C(C)C (stereo partly drawn) [new pepstatin B n-butyl ester]
- ID50 (50% inhibition against pepsin) (pepsin): 0.084 γ

SMILES: CCCCCC(=O)N[C@H](C(=O)N[C@H](C(=O)NC(CC(C)C)C(O)CC(=O)N[C@@H](C)C(=O)NC(CC(C)C)C(O)CC(=O)OCC)C(C)C)C(C)C (stereo partly drawn) [pepstatin B ethyl ester]
- ID50 (50% inhibition against pepsin) (pepsin): 0.054 γ

SMILES: CCCCCC(=O)N[C@H](C(=O)N[C@H](C(=O)NC(CC(C)C)C(O)CC(=O)N[C@@H](C)C(=O)NC(CC(C)C)C(O)CC(=O)OCCC)C(C)C)C(C)C (stereo partly drawn) [pepstatin B n-propylester]
- ID50 (50% inhibition against pepsin) (pepsin): 0.073 γ

SMILES: CCCCCC(=O)N[C@H](C(=O)N[C@H](C(=O)N[C@@H](CC(C)C)[C@@H](O)CC(=O)N[C@@H](C)C(=O)N[C@@H](CC(C)C)[C@@H](O)CC(=O)O)C(C)C)C(C)C [pepstatin B]
- solubility (physchem): 100 mg/mL (≈ 143 mM)

SMILES: CCCCCC(=O)N[C@H](C(=O)N[C@H](C(=O)NC(CC(C)C)C(O)CC(=O)N[C@@H](C)C(=O)NC(CC(C)C)C(O)CC(=O)O)C(C)C)C(C)C (stereo partly drawn) [sodium salt of pepstatin B]
- ID50 (50% inhibition against pepsin) (pepsin): 0.055 γ and 0.05 γ
